Test results from patent publication US20250375430A1, “USE OF DIHYDROBERBERINE TO PROMOTE RECRUITMENT AND ACTIVATION OF BROWN ADIPOSE TISSUES” (NANJING NUTRABUILDING BIO-TECH CO., LTD., priority 2023, published 2025).

Tests used:
C57BL/6J mice [1] = experiment: Plasma TC, TG, LDL, VLDL measured with kits in high-fat diet mice; assay type: in vivo
Experimental: Six-week-old male C57BL/6J mice were housed in a temperature-and relative humidity-controlled room (22±2° C., 55±5%) with a 12 h light-dark cycle and free access to food and water. For chronic anti-obesity studies, all mice were fed the high-fat diet (HFD, 60% calories from fat, 20% calories from protein, 20% calories from carbohydrate) for 8 weeks. At 14 weeks of age, all mice were randomly divided into 3 groups of 10 animals: (1) non-supplement group (Con Food only, Group 1); (2) DHB supplement group (DHB+Food. 50 mg/kg, Group 2); (3) DHB supplement group (DHB+Food, 100 mg/kg, Group 3). After an eight-week induction, the mice in group I were intraperitoneal injection (i.p.) administrated with normal saline between 9:30 and 11:30 am, and food and water were given ad libitum. The mice in group 2 and group 3 were intraperitoneal injection (i.p.) administrated with DHB in normal saline solution daily for 6 weeks between 9:30 and 11:30 am, and food and water were given ad libitum. The total experimental time is 14 weeks, including two periods: an eight-week induction period and a subsequent six-week supplement period. Plasma total cholesterol (TC), triglyceride (TG), low-density lipoprotein (LDL), and very low-density lipoprotein (VLDL) were measured using corresponding kits according to the manufacturers' instructions.

C57BL/6J mice [2] = experiment: Energy expenditure by comprehensive lab animal monitoring system (CLAMS), indirect calorimeter; assay type: in vivo
Experimental: Six-week-old male C57BL/6J mice were housed in a temperature-and relative humidity-controlled room (22±2° C., 55±5%) with a 12 h light-dark cycle and free access to food and water. For chronic anti-obesity studies, all mice were fed the high-fat diet (HFD, 60% calories from fat, 20% calories from protein, 20% calories from carbohydrate) for 8 weeks. At 14 weeks of age, all mice were randomly divided into 3 groups of 10 animals: (1) non-supplement group (Con Food only, Group 1); (2) DHB supplement group (DHB+Food. 50 mg/kg, Group 2); (3) DHB supplement group (DHB+Food, 100 mg/kg, Group 3). The mice in group 2 and group 3 were intraperitoneal injection (i.p.) administrated with DHB in normal saline solution daily for 6 weeks between 9:30 and 11:30 am, and food and water were given ad libitum. A key factor for controlling energy homoeostasis is the balance between caloric intake and energy expenditure. We analyzed the actions of DHB on energy expenditure using comprehensive lab animal monitoring system (CLAMS). Metabolic analysis was conducted between 8:30 am and 7:30 pm at the last week of experiment to identify […]. O2 consumption, CO2 production, and locomotor activity were measured using a 16-chamber indirect calorimeter. The mice were acclimated to the system for 20-24 h, and measurement of VO2 and VCO2 was performed during the next 24 h. The mice were maintained at 24° C. under a 12 h light/dark cycle. Food and water were available ad libitum. Voluntary activity was derived from the x-axis beam breaks monitored every 15 min. Heat production (energy expenditure) was calculated using the following equation: [formula] where heat is measured in kcal h^−1, VO2 is measured in litres kg^−1 h^−1 and body weight is measured in kg.

[3] = mice, including mice lacking intestinal bacteria needed to break down BBR; cited from earlier work
[4] = in vitro; cited from earlier work
C57BL/6J mice [5] = experiment: Body weight and fat mass by nuclear magnetic resonance body composition analyzer; assay type: in vivo
Experimental: (§1) Six-week-old male C57BL/6J mice were housed in a temperature-and relative humidity-controlled room (22±2° C., 55±5%) with a 12 h light-dark cycle and free access to food and water. For chronic anti-obesity studies, all mice were fed the high-fat diet (HFD, 60% calories from fat, 20% calories from protein, 20% calories from carbohydrate) for 8 weeks. At 14 weeks of age, all mice were randomly divided into 3 groups of 10 animals: (1) non-supplement group (Con Food only, Group 1); (2) DHB supplement group (DHB+Food. 50 mg/kg, Group 2); (3) DHB supplement group (DHB+Food, 100 mg/kg, Group 3). The mice in group 2 and group 3 were intraperitoneal injection (i.p.) administrated with DHB in normal saline solution daily for 6 weeks between 9:30 and 11:30 am, and food and water were given ad libitum. The body weight and fat mass of all mice were performed by the nuclear magnetic resonance body composition analyzer by Nuclear Magnetic Resonance Body Composition Analyzer in accordance with manufacturer's instruction. The body weight and fat mass were tested weekly (9-14 weeks) and at 9th and 14th week before supplementation and feeding, respectively.

C57BL/6J mice [6] = experiment: i.p. glucose tolerance test (GTT) in obese mice; assay type: in vivo; settings: 4th week of supplementation; glucose 0.75 g/kg i.p.; 0-120 min; especially higher dose; FIG. 5
Experimental: as §1, with “libitum.” for “libitum. The body weight and fat mass of all mice were performed by the nuclear magnetic resonance body composition analyzer by Nuclear Magnetic Resonance Body Composition Analyzer in accordance with manufacturer's instruction. The body weight and fat mass were tested weekly (9-14 weeks) and at 9th and 14th week before supplementation and feeding, respectively.”

UCP1, PRDM16 and PGC-1α = experiment: Expression levels of UCP1, PRDM16 and PGC-1α (FIG. 10); assay type: in vivo; settings: relative to mice without DHB
Experimental: as §1, with “libitum.” for “libitum. The body weight and fat mass of all mice were performed by the nuclear magnetic resonance body composition analyzer by Nuclear Magnetic Resonance Body Composition Analyzer in accordance with manufacturer's instruction. The body weight and fat mass were tested weekly (9-14 weeks) and at 9th and 14th week before supplementation and feeding, respectively.”

C57BL/6J mice [7] = experiment: Insulin tolerance test (ITT); assay type: in vivo; settings: FIG. 6
Experimental: Six-week-old male C57BL/6J mice were housed in a temperature-and relative humidity-controlled room (22±2° C., 55±5%) with a 12 h light-dark cycle and free access to food and water. For chronic anti-obesity studies, all mice were fed the high-fat diet (HFD, 60% calories from fat, 20% calories from protein, 20% calories from carbohydrate) for 8 weeks. At 14 weeks of age, all mice were randomly divided into 3 groups of 10 animals: (1) non-supplement group (Con Food only, Group 1); (2) DHB supplement group (DHB+Food. 50 mg/kg, Group 2); (3) DHB supplement group (DHB+Food, 100 mg/kg, Group 3). The mice in group 2 and group 3 were intraperitoneal injection (i.p.) administrated with DHB in normal saline solution daily for 6 weeks between 9:30 and 11:30 am, and food and water were given ad libitum. An insulin tolerance test (ITT) was performed by using a glucose analyzer in the 6-h fasting mice in the 5th week of the supplementation. The glucose concentrations were measured by venous bleeding at 0, 15, 30, 60 and 120 min after an i.p. injection of human insulin at 1 U/kg.

BAT = experiment: 18F-FDG uptake in BAT by PET/CT; assay type: in vivo, mice; settings: PET/CT 60 min after tracer; fasted overnight; FIG. 14
Experimental: as §1, with “[…] [formula]” for “The body weight and fat mass of all mice were performed by the nuclear magnetic resonance body composition analyzer by Nuclear Magnetic Resonance Body Composition Analyzer in accordance with manufacturer's instruction. The body weight and fat mass were tested weekly (9-14 weeks) and at 9th and 14th week before supplementation and feeding, respectively.”

UCP1 and PGC-1α = experiment: mRNA levels of brown fat-enriched genes in adipose tissues (inguinal WAT) by real-time PCR; assay type: in vivo, mice
Experimental: Six-week-old male C57BL/6J mice were housed in a temperature-and relative humidity-controlled room (22±2° C., 55±5%) with a 12 h light-dark cycle and free access to food and water. For chronic anti-obesity studies, all mice were fed the high-fat diet (HFD, 60% calories from fat, 20% calories from protein, 20% calories from carbohydrate) for 8 weeks.
At 14 weeks of age, all mice were randomly divided into 3 groups of 10 animals: (1) non-supplement group (Con Food only, Group 1); (2) DHB supplement group (DHB+Food. 50 mg/kg, Group 2); (3) DHB supplement group (DHB+Food, 100 mg/kg, Group 3).
The mice in group 2 and group 3 were intraperitoneal injection (i.p.) administrated with DHB in normal saline solution daily for 6 weeks between 9:30 and 11:30 am, and food and water were given ad libitum.
At the end of the study, all mice were anesthetized with chloral hydrate, all relevant tissues like inguinal and perirenal adipose were dissected, weighed, immediately frozen in liquid nitrogen, and stored at −80° C.
The mRNA levels of brown fat-enriched genes such as UCP1 and PGC-1α from adipose tissues (like inguinal WAT) were determined by real-time PCR analysis.

C57BL/6J mice [8] = experiment: Rectal temperature in the cold room; assay type: in vivo; settings: cold room 4-8° C.; 9th and 14th week; FIG. 15
Experimental: as §1, with “libitum.” for “libitum. The body weight and fat mass of all mice were performed by the nuclear magnetic resonance body composition analyzer by Nuclear Magnetic Resonance Body Composition Analyzer in accordance with manufacturer's instruction. The body weight and fat mass were tested weekly (9-14 weeks) and at 9th and 14th week before supplementation and feeding, respectively.”

brown adipocyte = settings: by increasing transcription of PRDM16 via AMPK activation and PGC-1α recruitment; cited from earlier work
obese db/db mice = settings: cited from earlier work
[9] = 100 mg/kg compared with 50 mg/kg
[10] = adipose tissue (inguinal WAT), real-time PCR, relative to mice without DHB, FIG. 9

Q: For `COc1ccc2c(c1OC)CN1CCc3cc4c(cc3C1=C2)OCO4` [DHB, dihydroberberine], which “improving biomarkers related to lipid mobilization, higher dose than lower dose” value (C57BL/6J mice [1]; [9]) is on record?
A: The value was “greater effects”.

Q: What about the TG level (C57BL/6J mice [1]; plasma, HFD mice, DHB i.p. 50 or 100 mg/kg daily for 6 weeks, relative to mice without DHB, FIG. 1) of the same molecule?
A: Its TG level is “lower levels”.

Q: And the TC level (C57BL/6J mice [1]; plasma, HFD mice, DHB i.p. 50 or 100 mg/kg daily for 6 weeks, relative to mice without DHB, FIG. 2)?
A: The TC level was “lower levels”.

Q: What about the LDL level (C57BL/6J mice [1]; plasma, HFD mice, DHB i.p. 50 or 100 mg/kg daily for 6 weeks, relative to mice without DHB, FIG. 3) of the same molecule?
A: The LDL level was “lower levels”.

Q: What about the VLDL level (C57BL/6J mice [1]; plasma, HFD mice, DHB i.p. 50 or 100 mg/kg daily for 6 weeks, relative to mice without DHB, FIG. 4) of the same molecule?
A: Its VLDL level is “lower levels”.

Q: And the “BAT thermogenesis and energy expenditure, higher dose than lower dose” value (C57BL/6J mice [2]; [9])?
A: Its value is “greater effects”.

Q: What about the “BAT thermogenesis and energy expenditure” value (C57BL/6J mice [2]; 24 h period, FIG. 13) of the same molecule?
A: The value was “beneficial effects”.

Q: And the “oxygen consumption (VO2) rate” value (C57BL/6J mice [2]; through a 12-h light/dark cycle, 24 h period, 24° C., FIG. 11)?
A: Its value is “markedly higher”.

Q: What about the “carbon dioxide production (VCO2) rate” value (C57BL/6J mice [2]; through a 12-h light/dark cycle, 24 h period, 24° C., FIG. 12) of the same molecule?
A: The value was “markedly higher”.

Q: What about the “absorption relative to BBR” value [3] of the same molecule?
A: The value was “better absorbed”.

Q: What about the “intestinal absorption rate relative to BBR” value [4] of the same molecule?
A: Its value is “five times higher”.

Q: What about the “body weight (weight gain)” value (C57BL/6J mice [5]; group 2 and 3 (50 and 100 mg/kg), 6 weeks of treatment, week 9 to 14, FIG. 7) of the same molecule?
A: The value was “obviously protected from weight gain”.

Q: And the “fat mass percentage (fat accumulation)” value (C57BL/6J mice [5]; group 3 (100 mg/kg), 9th and 14th week, FIG. 8)?
A: The value was “inhibited fat accumulation better”.

Q: What about the body fat percentage (C57BL/6J mice [5]; relative to mice without DHB supplementation) of the same molecule?
A: Its body fat percentage is “decreases body fat percentage”.

Q: What about the “tolerance to a glucose load (i.p. glucose tolerance test)” value (C57BL/6J mice [6]) of the same molecule?
A: The value was “better tolerance to a glucose load”.

Q: What about the “expression of PGC-1α” value (UCP1, PRDM16 and PGC-1α) of the same molecule?
A: Its value is “increase the expression”.

Q: And the “expression of PRDM16” value (UCP1, PRDM16 and PGC-1α)?
A: The value was “increase the expression”.

Q: And the “expression of UCP1” value (UCP1, PRDM16 and PGC-1α)?
A: The value was “increase the expression”.

Q: What about the “insulin tolerance test result, higher-dose group” value (C57BL/6J mice [7]; [9]) of the same molecule?
A: The value was “better result”.

Q: What about the “insulin tolerance test result” value (C57BL/6J mice [7]; 5th week of supplementation, 6-h fasting, human insulin 1 U/kg i.p.) of the same molecule?
A: Its value is “ameliorated glucose tolerance”.

Q: What about the “total accumulated amount of 18F-FDG in BAT” value (BAT) of the same molecule?
A: The value was “increase the accumulated amount”.

Q: And the “browning of white fat, higher dose than lower dose” value (UCP1 and PGC-1α; [9])?
A: Its value is “greater effects”.

Q: And the “PGC-1α mRNA level” value (UCP1 and PGC-1α; [10])?
A: The value was “higher levels”.

Q: And the “UCP1 mRNA level” value (UCP1 and PGC-1α; [10])?
A: The value was “higher levels”.

Q: What about the rectal temperature (C57BL/6J mice [8]) of the same molecule?
A: The rectal temperature was “higher”.

Q: Which “brown adipocyte differentiation and BAT thermogenesis” value (brown adipocyte) does the source give for `COc1ccc2cc3[n+](cc2c1OC)CCc1cc2c(cc1-3)OCO2` [BBR, berberine] here?
A: The value was “promote”.

Q: And the “energy expenditure and adaptive thermogenesis” value (obese db/db mice)?
A: Its value is “increase”.

Q: And the “thermogenic program in BAT” value (obese db/db mice)?
A: Its value is “promote the thermogenic program in BAT”.

Q: What about the weight gain (obese db/db mice) of the same molecule?
A: Its weight gain is “reduce weight gain”.
